{"source": "patent US20090012018A1", "about": "“Inhibition of pancretic cancer cell growth” (priority 2004, published 2009)", "key": {"Tcf1": {"system": "Tcf1", "test": "Immunofluorescence of Tcf expression in pancreatic cancer cells", "assay_type": "cell-based, human", "conditions": "pancreatic cancer cells (Panc4.21); cyclopamine for 24 hrs (FIG. 4C) or sulindac-treated"}, "[1]": {"system": "Wnt signaling (Top-Flash reporter)", "test": "Fop/Top-Flash luciferase reporter assay", "assay_type": "cell-based, human", "conditions": "CFPAC-1, BxPC3, L3.6sl, Panc4.21, 24 hrs after transfection, sulindac 250 μM, sulindac sulfone 150 μM, cyclopamine 10 μM, or co-transfection", "protocol": "The cell lines were plated the day prior to transfection at a density of 8×10^4 cells/well in a 24-well plate. The luciferase reporter constructs used included: Top-Flash and Fop-Flash containing multimerized Tcf-Lef binding sites or nonfunctional sites, respectively; TK-Luc (Promega); and GliBS containing 8×Gli binding sites upstream of the TK minimal promoter (Sasaki et al., Development, 124:1313-1322, 1997). In different experiments, the reporter constructs were co-transfected with an expression vector containing a dominant-negative form of Lef1 or the endogenous Wnt inhibitor Icat. The dominant negative Lef1 (gift from S. Pleasure) was generated by cloning the 63 amino acid N-terminal deleted form of Lef1 into the pEF5 plasmid. This construct also contains an IRES-EGFP cassette. The cDNA coding for the Icat protein was cloned into pIRES2-EGFP (BD Biosciences Clontech). Transfections were performed using the Effectene transfection reagent […] according to the user's manual. A Renilla luciferase plasmid (Promega) was included to control for transfection efficiency. Transfected cells were cultured in medium containing serum. […] Cells were harvested 24 hrs after transfection, and luciferase activity was assayed using the Dual Luciferase kit (Promega), according to the user's manual.\nFor each Fop-luciferase or Top-luciferase experiment, a renilla luciferase construct was included. For each experimental condition (drug treatment, co-transfection or siRNA), triplicate Top- and Fop-luciferase samples were analyzed. To equilibrate the total vector-DNA (or siRNA) amount in all samples, equivalent amounts of an empty expression vector or unrelated siRNAs were transfected into control samples. The following equations were used to obtain the normalized luciferase values and the relative (fold) activation. The firefly luciferase (Fop and Top) values were divided by the renilla luciferase values to obtain the normalized luciferase values. The normalized Top values for each condition were divided by the Fop values of the same condition (e.g., untreated Top/untreated Fop; drug-treated Top/drug-treated Fop). […] To minimize the number of bars in each figure, only representative average Fop values are included in the graphs."}, "Tcf4": {"system": "Tcf4", "test": "Immunofluorescence of Tcf expression in pancreatic cancer cells", "assay_type": "cell-based, human", "conditions": "cyclopamine for 24 hrs (FIG. 4C) or sulindac-treated"}, "BxPC3 tumors": {"system": "BxPC3 tumors", "test": "Subcutaneous tumor treatment in nude mice", "assay_type": "in vivo, CD-1 nude mice", "protocol": "(§1) A total of 0.1 ml Hanks' balanced salt solution and matrigel (1:1) containing 2×10^6 cells was injected subcutaneously into CD-1 nude mice (Charles River Laboratories). Tumors were grown for 4 days to a minimum volume of 125 mm^3. Treatment was initiated simultaneously for all subjects. Mice were injected with vector alone (peanut oil: PBS 7:3 v/v) or with a sulindac solution (3 mg/mouse/day) daily for 5 days. Sulindac sulfone was administered orally (1.5 mg/mouse/day). At the end of the treatment period, tumors were excised from mice, weighed and photographed."}, "CFPAC-1 tumors": {"system": "CFPAC-1 tumors", "test": "Subcutaneous tumor treatment in nude mice", "assay_type": "in vivo, CD-1 nude mice", "conditions": "treated for five days vs controls, sulindac 3 mg/mouse/day injected, sulindac sulfone 1.5 mg/mouse/day orally", "protocol": "as §1"}, "CFPAC-1": {"system": "CFPAC-1", "test": "Sensitivity of pancreatic adenocarcinoma cells to drug treatment (cell proliferation, apoptosis)", "assay_type": "cell-based, human", "conditions": "CFPAC-1 (CFPAC); vs untreated controls; FIG. 3B, 5", "protocol": "The culture media was changed every 48 hrs.\nCells were pulsed with 10 μM BrdU for two hours and then harvested and fixed. BrdU incorporation was detected with a fluorescein isothiocyanate conjugated anti-BrdU antibody (BD Biosciences) and total DNA was stained with 7-AAD (BD Biosciences). FACS analysis was performed according to the BD Biosciences BrdU flow kit manual. Cells in S-phase were defined as the BrdU-positive cell population with a DNA content between 2N and 4N. According to the manual, apoptotic cells were defined as a subpopulation of G0/G1 cells with DNA content lower than the diploid amount (<2N)."}}, "note": "“Also recorded” adds a separate entry of the source.", "data": [{"compound": "CC1=C(CC(=O)O)c2cc(F)ccc2/C1=C\\c1ccc([S+](C)[O-])cc1", "note": "(centres unmarked) [sulindac]", "values": [{"measurement": "Tcf1 expression", "setting": "Tcf1", "value": "reduced"}, {"measurement": "Top-Flash reporter activity (Wnt signaling)", "setting": "[1]", "value": "inhibit Wnt activity; also recorded: inhibited; also recorded: showed an inhibitory effect"}, {"measurement": "Top-Flash reporter activity (Wnt signaling)", "setting": "[1]; listed as Sulindac", "value": "suppressed Top-Flash reporter activation in all cell lines tested"}, {"measurement": "Tcf4 expression", "setting": "Tcf4", "value": "reduced"}, {"measurement": "reduction in tumor volume compared to untreated samples", "setting": "BxPC3 tumors; sulindac 3 mg/mouse/day injected daily for 5 days", "value": 80, "unit": "%"}, {"measurement": "tumor growth", "setting": "BxPC3 tumors; treated for five days vs untreated controls, sulindac 3 mg/mouse/day injected, sulindac sulfone 1.5 mg/mouse/day orally", "value": "strongly reduced"}, {"measurement": "tumor growth (volume, size)", "setting": "CFPAC-1 tumors", "value": "largely unaffected; also recorded: No reduction"}, {"measurement": "cell growth (proliferation, apoptosis)", "setting": "CFPAC-1", "value": "not affected; also recorded: only marginally affected"}]}]}
